Measurements taken from PMC10434068, “Discriminating Susceptibility of Xanthine Oxidoreductase Family to Metals” (Microbiology Spectrum, 2023).

Assays:
[1] = target: T1, pCOD (putative CO dehydrogenase; CoxSLM complex) (Rubrivivax gelatinosus, UniProt I0HW74+I0HW75); experiment: in-gel NBT reductase activity, native PAGE of soluble fraction, no riboflavin; type: biochemical; conditions: NBT 2 mg/mL; 50 mM Tris-HCl pH 7.6; room temperature, dark; no electron donor added; reduction may run through superoxide
T1 construct: gene coxL; native complex in soluble fraction, native PAGE band between 130 and 250 kDa; predicted 126 kDa (CoxL 84, CoxM 27, CoxS 17 kDa); band absent in coxL mutant; with Carbon monoxide dehydrogenase large chain; Carbon monoxide dehydrogenase small chain
T1 sequence (I0HW74 1-781): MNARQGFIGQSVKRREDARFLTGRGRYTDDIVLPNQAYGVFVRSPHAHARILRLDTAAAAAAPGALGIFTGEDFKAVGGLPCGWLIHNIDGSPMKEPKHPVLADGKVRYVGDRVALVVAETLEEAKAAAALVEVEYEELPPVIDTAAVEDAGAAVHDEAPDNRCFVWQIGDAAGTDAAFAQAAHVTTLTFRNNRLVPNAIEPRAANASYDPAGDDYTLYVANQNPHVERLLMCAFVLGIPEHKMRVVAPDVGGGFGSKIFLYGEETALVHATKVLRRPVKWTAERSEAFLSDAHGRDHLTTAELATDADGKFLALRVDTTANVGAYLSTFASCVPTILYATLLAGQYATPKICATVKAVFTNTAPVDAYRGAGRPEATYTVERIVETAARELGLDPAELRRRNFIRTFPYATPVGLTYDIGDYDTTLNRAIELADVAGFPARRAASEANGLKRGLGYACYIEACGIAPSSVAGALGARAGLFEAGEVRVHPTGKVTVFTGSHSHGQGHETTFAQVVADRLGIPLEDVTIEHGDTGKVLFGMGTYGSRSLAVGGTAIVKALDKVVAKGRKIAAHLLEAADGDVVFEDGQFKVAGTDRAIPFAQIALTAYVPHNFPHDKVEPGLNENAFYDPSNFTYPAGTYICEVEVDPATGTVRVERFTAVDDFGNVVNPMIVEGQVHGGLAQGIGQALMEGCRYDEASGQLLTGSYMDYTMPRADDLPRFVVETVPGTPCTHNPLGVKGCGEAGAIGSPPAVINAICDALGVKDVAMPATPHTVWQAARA
T1 sequence (I0HW75 1-265): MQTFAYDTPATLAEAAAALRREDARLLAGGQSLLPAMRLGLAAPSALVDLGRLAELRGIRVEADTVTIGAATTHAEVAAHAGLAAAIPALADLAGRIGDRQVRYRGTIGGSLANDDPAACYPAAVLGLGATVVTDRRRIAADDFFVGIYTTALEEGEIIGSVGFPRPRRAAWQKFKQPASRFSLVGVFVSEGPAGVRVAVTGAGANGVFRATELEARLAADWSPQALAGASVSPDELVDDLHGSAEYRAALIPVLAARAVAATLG
T1 sequence (I0HW73 1-155 partner): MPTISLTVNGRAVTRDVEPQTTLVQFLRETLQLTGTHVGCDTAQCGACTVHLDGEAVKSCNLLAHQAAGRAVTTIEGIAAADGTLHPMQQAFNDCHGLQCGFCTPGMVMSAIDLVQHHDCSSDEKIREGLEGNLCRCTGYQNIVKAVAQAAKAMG

[2] = target: T2, XDH (xanthine dehydrogenase) of R. gelatinosus (Rubrivivax gelatinosus, UniProt I0HWE5); experiment: in-gel NBT reductase activity, native PAGE of soluble fraction; type: biochemical; conditions: NBT 2 mg/mL as electron acceptor; 50 mM Tris-HCl pH 7.6; room temperature
T2 construct: gene xdhB; native complex of about 250 kDa in soluble fraction, native PAGE band; XdhB 82 kDa, XdhA 54 kDa, XdhC 27 kDa; band absent in xdhB mutant; with Xanthine dehydrogenase, FAD and iron-sulfur subunit XdhA; Xanthine dehydrogenase subunit or accessory protein XdhC
T2 sequence (I0HWE5 1-778): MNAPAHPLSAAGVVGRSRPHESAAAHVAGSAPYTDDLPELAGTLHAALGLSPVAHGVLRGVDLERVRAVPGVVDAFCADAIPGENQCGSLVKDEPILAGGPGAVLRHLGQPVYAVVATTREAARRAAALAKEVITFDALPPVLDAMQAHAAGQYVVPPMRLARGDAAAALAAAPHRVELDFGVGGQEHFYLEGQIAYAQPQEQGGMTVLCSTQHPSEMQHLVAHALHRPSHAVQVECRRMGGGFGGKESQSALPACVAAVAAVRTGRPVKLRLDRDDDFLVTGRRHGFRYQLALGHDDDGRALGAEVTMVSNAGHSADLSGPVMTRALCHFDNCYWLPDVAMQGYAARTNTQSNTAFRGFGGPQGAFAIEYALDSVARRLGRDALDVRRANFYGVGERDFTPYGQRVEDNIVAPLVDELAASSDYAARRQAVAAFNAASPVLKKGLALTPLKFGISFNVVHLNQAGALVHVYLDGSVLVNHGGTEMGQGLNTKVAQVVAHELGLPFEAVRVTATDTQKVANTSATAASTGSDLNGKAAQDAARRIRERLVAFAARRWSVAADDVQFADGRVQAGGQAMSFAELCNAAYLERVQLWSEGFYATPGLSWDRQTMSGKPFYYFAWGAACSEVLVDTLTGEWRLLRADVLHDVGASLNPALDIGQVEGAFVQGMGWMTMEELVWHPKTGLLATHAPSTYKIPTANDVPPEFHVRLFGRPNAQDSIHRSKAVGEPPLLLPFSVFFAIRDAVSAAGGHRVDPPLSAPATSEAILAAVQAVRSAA
T2 sequence (I0HWE6 1-493 partner): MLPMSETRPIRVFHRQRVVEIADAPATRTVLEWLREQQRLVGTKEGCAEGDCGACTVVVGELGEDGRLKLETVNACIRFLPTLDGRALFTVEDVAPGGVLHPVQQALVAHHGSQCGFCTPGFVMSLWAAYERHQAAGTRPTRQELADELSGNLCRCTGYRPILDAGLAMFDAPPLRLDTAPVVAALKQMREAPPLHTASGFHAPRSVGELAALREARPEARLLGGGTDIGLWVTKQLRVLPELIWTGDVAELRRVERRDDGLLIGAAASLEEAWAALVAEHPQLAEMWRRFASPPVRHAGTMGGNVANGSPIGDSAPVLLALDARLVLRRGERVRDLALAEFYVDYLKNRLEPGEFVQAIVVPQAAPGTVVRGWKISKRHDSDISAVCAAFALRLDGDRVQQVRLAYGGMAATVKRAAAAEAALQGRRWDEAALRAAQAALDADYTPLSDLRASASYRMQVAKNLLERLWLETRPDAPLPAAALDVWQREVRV

COc1cc(-c2ccc(-n3nc(-c4ccccc4)n[n+]3-c3ccc([N+](=O)[O-])cc3)c(OC)c2)ccc1-n1nc(-c2ccccc2)n[n+]1-c1ccc([N+](=O)[O-])cc1 [nitroblue tetrazolium]
in-gel NBT reductase activity, native PAGE of soluble fraction, no riboflavin [1]: able to reduce NBT to NBT-formazan in the absence of riboflavin

O=c1[nH]c(=O)c2[nH]cnc2[nH]1 [xanthine]
in-gel NBT reductase activity, native PAGE of soluble fraction [2]: the addition of xanthine to the native PAGE gel revealed a second active band
